ChEMBL document CHEMBL5108072, “Discovery of Chlorofluoroacetamide-Based Covalent Inhibitors for Severe Acute Respiratory Syndrome Coronavirus 2 3CL Protease” (J Med Chem, 2022)
The source made the active and inactive calls. The calls are words filed in the database; no cut-off is given here.

Experiments:
SARS-CoV-2 [1] = experiment: microbe, parasite or virus in culture; conditions: Severe acute respiratory syndrome coronavirus 2, Vero C1008
SARS-CoV-2 [2] = experiment: microbe, parasite or virus in culture; conditions: Severe acute respiratory syndrome coronavirus 2, alpha QK002, HEK-293T
SARS-CoV-2 [3] = experiment: microbe, parasite or virus in culture; conditions: Severe acute respiratory syndrome coronavirus 2, delta TY11-927, HEK-293T
SARS-CoV-2 [4] = experiment: microbe, parasite or virus in culture; conditions: Severe acute respiratory syndrome coronavirus 2, Vero C1008; remark: listed apart in the source
SARS-CoV-2 [5] = experiment: microbe, parasite or virus in culture; conditions: Severe acute respiratory syndrome coronavirus 2, HEK-293T
SARS-CoV = experiment: microbe, parasite or virus in culture; conditions: Severe acute respiratory syndrome-related coronavirus, HEK-293T
cells = conditions: Betacoronavirus 1, HEK-293T
[6] = tested on: Middle East respiratory syndrome-related coronavirus; experiment: microbe, parasite or virus in culture; conditions: EMC2012, HEK-293T
[7] = target: Replicase polyprotein 1ab (Severe acute respiratory syndrome coronavirus 2, UniProt P0DTD1); experiment: Inhibition of recombinant full length SARS-CoV-2 3CLpro expressed in Escherichia coli using Ac-Abu-Tle-Leu-Gln-MCA as fluorogenic substrate preincubated for 30 mins followed by substrate addition and measured for 6 hrs by multimode plate reader analysis
[8] = Toxicity in fasted ICR/c mouse assessed as debilitation at 100 mg/kg, po; type: organism-based; conditions: in vivo
[9] = Toxicity in fasted ICR/c mouse assessed as hypotension at 100 mg/kg, po; type: organism-based; conditions: in vivo
[10] = target: Replicase polyprotein 1ab (Severe acute respiratory syndrome coronavirus 2) (UniProt P0DTD1); experiment: Binding affinity to SARS-CoV-2 3CLpro spiked in human A-431 cells assessed as increase in fluorescence intensity at 0.1 uM incubated for 1 hr by gel electrophoresis based fluorescence analysis; type: cell-based
Cathepsin S = Cathepsin S (Homo sapiens, UniProt P25774); experiment: Inhibition of C-terminal His-tagged recombinant Human cathepsin S (17 to 331 residues) expressed in FreeStyle 293-F cells using Z-Leu-Arg-MCA peptide as fluorogenic substrate preincubated for 30 mins followed by substrate addition and measured after 1 hr by multimode plate reader analysis; type: cell-based
Sequence of Cathepsin S (P25774 whole entry, the tested form may be a part): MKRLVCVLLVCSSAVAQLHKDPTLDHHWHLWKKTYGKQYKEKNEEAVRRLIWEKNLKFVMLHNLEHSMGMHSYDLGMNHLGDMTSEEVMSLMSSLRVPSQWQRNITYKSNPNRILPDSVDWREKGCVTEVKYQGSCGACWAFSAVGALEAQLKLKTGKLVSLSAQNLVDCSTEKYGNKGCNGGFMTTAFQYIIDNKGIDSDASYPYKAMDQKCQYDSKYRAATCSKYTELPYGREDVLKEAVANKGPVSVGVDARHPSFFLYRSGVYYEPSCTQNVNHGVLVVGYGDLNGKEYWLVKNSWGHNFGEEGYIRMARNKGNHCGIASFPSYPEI

[11] = GSH reactivity in potassium phosphate buffer at pH 7.4 assessed as half life at 1 mM; type: physicochemical; conditions: potassium phosphate buffer with GSH
[12] = Bioavailability in fasted ICR/c mouse at 100 mg/kg, po or 10 mg/kg, iv by LC-MS/MS analysis; type: ADME, organism-based; conditions: in vivo
[13] = Drug concentration in fasted ICR/c mouse lungs at 100 mg/kg, po measured after 6 hrs by LC-MS/MS analysis; type: ADME, organism-based, Lung; conditions: in vivo
Cathepsin B = Cathepsin B (Homo sapiens, UniProt P07858); experiment: Inhibition of C-terminal His-tagged Human cathepsin B expressed in FreeStyle 293-F cells using Z-Leu-Arg-MCA peptide as fluorogenic substrate preincubated for 30 mins followed by substrate addition and measured after 1 hr by multimode plate reader analysis; type: cell-based
[14] = Drug concentration in fasted ICR/c mouse lungs at 10 mg/kg, iv measured after 6 hrs by LC-MS/MS analysis; type: ADME, organism-based, Lung; conditions: in vivo
[15] = target: Replicase polyprotein 1ab (Severe acute respiratory syndrome coronavirus 2) (UniProt P0DTD1); experiment: Irreversible inhibition of recombinant full length SARS-CoV-2 3CLpro expressed in Escherichia coli using Ac-Abu-Tle-Leu-Gln-MCA as fluorogenic substrate assessed as inhibition of substrate hydrolysis at upto 500 nM incubated for 60 mins by multimode plate reader analysis; conditions: TDE = time-dependent effect
Procathepsin L = Procathepsin L (Homo sapiens, UniProt P07711); experiment: Inhibition of C-terminal His-tagged recombinant Human cathepsin L (18 to 333 residues) expressed in FreeStyle 293-F cells using Z-Leu-Arg-MCA peptide as fluorogenic substrate preincubated for 30 mins followed by substrate addition and measured after 1 hr by multimode plate reader analysis; type: cell-based
Sequence of Procathepsin L (P07711 whole entry, the tested form may be a part): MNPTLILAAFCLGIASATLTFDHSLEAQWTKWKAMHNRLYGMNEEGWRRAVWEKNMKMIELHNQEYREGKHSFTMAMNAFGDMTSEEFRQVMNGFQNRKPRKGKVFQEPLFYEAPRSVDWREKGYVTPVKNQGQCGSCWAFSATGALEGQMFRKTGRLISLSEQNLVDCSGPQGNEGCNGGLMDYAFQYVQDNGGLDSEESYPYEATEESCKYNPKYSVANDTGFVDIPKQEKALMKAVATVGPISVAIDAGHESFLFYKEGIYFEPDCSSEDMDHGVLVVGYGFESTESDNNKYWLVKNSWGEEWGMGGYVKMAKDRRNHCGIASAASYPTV

[16] = Plasma protein binding in mouse assessed as unbound fraction at 1 uM incubated for 16 to 20 hrs by LC-MS/MS analysis; type: ADME, cell-free; conditions: time 16-20 hrs

| SMILES | EC50 (SARS-CoV-2 [1]) [nM] | EC50 (SARS-CoV-2 [2]) [nM] | EC50 (SARS-CoV-2 [3]) [nM] | EC50 (SARS-CoV-2 [4]) [nM] | EC50 (SARS-CoV-2 [5]) [nM] | EC50 (SARS-CoV) [nM] | EC50 (cells) [nM] | EC50 [6] [nM] | also measured |
| --- | --- | --- | --- | --- | --- | --- | --- | --- | --- |
| CC(C)C[C@H](NC(=O)c1cc2c(F)cccc2[nH]1)C(=O)NN(C[C@H]1CCNC1=O)C(=O)[C@H](F)Cl | 423 | 92.3 | 44.5 | > 50000 | 141 |  |  |  |  |
| O=c1nc(NO)ccn1[C@@H]1O[C@H](CO)[C@@H](O)[C@H]1O [N-HYDROXYCYTIDINE] | 238 | 1220 | 351 | 204 | 446 | 1560 | 1190 | 1320 |  |
| COc1cccc2[nH]c(C(=O)N[C@@H](CC(C)C)C(=O)NN(C[C@@H]3CCNC3=O)C(=O)[C@H](F)Cl)cc12 | 69.7 | 16.2 | 8.79 | 20800 | 24.4 | 64.4 | 3.18 | 5.01 | IC50 [7]: 9.5 nM; Activity [8]: Toxic; Activity [9]: Toxic |
| COc1cccc2[nH]c(C(=O)N[C@@H](CC(C)C)C(=O)N[C@@H](C[C@@H]3CCNC3=O)C(=O)CO)cc12 [PF-00835231] | 509 | 1600 | 692 | > 50000 | 915 | 3240 | 929 | 700 |  |
| C#CCOc1cccc2[nH]c(C(=O)N[C@@H](CC(C)C)C(=O)NN(C[C@@H]3CCNC3=O)C(=O)[C@H](F)Cl)cc12 |  |  |  |  |  |  |  |  | Activity [10]: Active |
| CC(C)C[C@H](NC(=O)c1cc2c(F)cccc2[nH]1)C(=O)NN(C[C@@H]1CCNC1=O)C(=O)[C@H](F)Cl | 59 | 13.8 | 737 |  |  | 59.3 | 1.67 | 4.72 | IC50 (Cathepsin S): > 50000 nM; half-life at 1000 µM [11]: 48.2 h; bioavailability [12]: 9%; Ct [13]: 78 nmol/mg; IC50 (Cathepsin B): > 50000 nM; Ct [14]: 63 nmol/mg; inhibition [15]: Tde; IC50 (Procathepsin L): > 50000 nM; Fu [16]: 0.15% |
| COc1cccc2[nH]c(C(=O)N[C@@H](CC(C)C)C(=O)NN(C[C@H]3CCNC3=O)C(=O)[C@H](F)Cl)cc12 | 389 | 103 | 50 | > 50000 | 119 |  |  |  |  |
| CC(=O)N(C[C@@H]1CCNC1=O)NC(=O)[C@H](CC(C)C)NC(=O)c1cc2c(F)cccc2[nH]1 |  |  |  |  |  |  |  |  | IC50 [7]: 332 nM |
| CC(C)C[C@H](NC(=O)c1cc2c(F)cccc2[nH]1)C(=O)NN(C[C@@H]1CCNC1=O)C(=O)[C@@H](F)Cl |  | 69 | 48.7 |  | 198 |  |  |  | inhibition [15]: Tde |
